Results: ChEMBL document CHEMBL1132788, “Analogues and derivatives of ciproxifan, a novel prototype for generating potent histamine H3-receptor antagonists” (Bioorg Med Chem Lett, 2000)

What was measured:
[1] = biological target: Histamine H3 receptor (Mus musculus) (UniProt P58406); test: In vivo Histamine H3 receptor antagonism, dose required to increase in N-t-methylhistamine levels in Swiss mice brains 90 min after p.o. administration; type: functional, organism-based; conditions: Brain
Histamine H3 receptor = Histamine H3 receptor (Rattus norvegicus, UniProt Q9QYN8); test: In vitro inhibitory activity against Histamine H3 receptor for K+ evoked depolarization-induced release of [3H]histamine from synaptosomes of rat cerebral cortex; type: subcellular, Brain
Histamine H3 receptor, sequence (Q9QYN8 whole entry): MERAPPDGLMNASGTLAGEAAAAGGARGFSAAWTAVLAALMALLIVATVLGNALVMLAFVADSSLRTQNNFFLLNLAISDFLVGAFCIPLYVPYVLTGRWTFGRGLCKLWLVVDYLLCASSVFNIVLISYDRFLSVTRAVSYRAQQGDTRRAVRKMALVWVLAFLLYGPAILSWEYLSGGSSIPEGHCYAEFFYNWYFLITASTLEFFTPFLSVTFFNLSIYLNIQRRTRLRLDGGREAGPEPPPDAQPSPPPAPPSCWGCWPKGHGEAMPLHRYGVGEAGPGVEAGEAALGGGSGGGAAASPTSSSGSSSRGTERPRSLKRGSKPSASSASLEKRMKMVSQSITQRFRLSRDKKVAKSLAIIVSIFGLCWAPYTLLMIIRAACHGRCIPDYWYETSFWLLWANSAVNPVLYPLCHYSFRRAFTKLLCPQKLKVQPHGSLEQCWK

Histamine H3 receptor (Mus musculus), sequence (P58406 whole entry): as the sequence (Q9QYN8 whole entry) above, with T15A, A286T, A290G, R387H, I389V counted along it

## O=C(CCCO)c1ccc(OCCCc2c[nH]cn2)cc1
[1]
  ED50: > 10 mg/kg

## O=C(CCCO)c1ccc(OCCCc2cnc[nH]2)cc1
Histamine H3 receptor
  Ki: 30 nM

## O=C(CCCN1CCCC1)c1ccc(OCCCc2c[nH]cn2)cc1
[1]
  ED50: > 10 mg/kg

## OC(c1ccc(OCCCc2c[nH]cn2)cc1)C1CC1 (stereo not given)
Histamine H3 receptor
  Ki: 0.58 nM
[1]
  ED50: 0.18 mg/kg

## CCCCc1ccc(OCCCc2c[nH]cn2)cc1
[1]
  ED50: 0.96 mg/kg

## OCCCC1(c2ccc(OCCCc3c[nH]cn3)cc2)OCCO1
Histamine H3 receptor
  Ki: 40 nM
[1]
  ED50: > 10 mg/kg

## ClCC/C=C/c1ccc(OCCCc2c[nH]cn2)cc1
[1]
  ED50: 0.72 mg/kg

## CCCCc1ccc(OCCCc2cnc[nH]2)cc1
Histamine H3 receptor
  Ki: 60 nM

## c1nc(CCCOc2ccc(CC3CC3)cc2)c[nH]1
[1]
  ED50: > 10 mg/kg

## O=C(c1ccc(OCCCCc2cnc[nH]2)cc1)C1CC1
Histamine H3 receptor
  Ki: 113 nM

## O=C(c1ccc(OCCc2c[nH]cn2)cc1)C1CC1
Histamine H3 receptor
  Ki: 2.1 nM
[1]
  ED50: 0.21 mg/kg

## O=C(c1ccc(OCCCCc2c[nH]cn2)cc1)C1CC1
[1]
  ED50: > 10 mg/kg

## O/N=C(/c1ccc(OCCCc2c[nH]cn2)cc1)C1CC1
[1]
  ED50: 0.21 mg/kg

## CC(C)(C)CCC#C[C@@H]1C[C@H]1c1c[nH]cn1
[1]
  ED50: 0.12 mg/kg

## O=C(c1ccc(OCCCc2c[nH]cn2)cc1)C1CC1
[1]
  ED50: 0.14 mg/kg

## O=C(c1ccc(OCc2c[nH]cn2)cc1)C1CC1
Histamine H3 receptor
  Ki: > 500 nM
[1]
  ED50: 2.8 mg/kg
